# System: human tenocytes
# Experiment: Human tenocyte adhesion and proliferation, in vitro culture, manual count in ten microscopic fields
# Type: cell-based
# Details: IGF-1 10 ng/mL, same increase reached after 9 hours, FIG. 2
# Protocol: The objective was to determine the effect of compound Ic on human tenocyte proliferation and adhesion in an in vitro culture model, since a drug stimulating tenocyte proliferation and adhesion could be especially useful in the treatment or repair of tendons.
# For comparison purposes, the effect of the growth factor IGF-1 on human tenocyte proliferation and adhesion in the same type of in vitro culture model was determined.
# The increase of adhered tenocytes was quantified by means of manual count in ten microscopic fields.
# Human tendon explants (of approximately 3-5 mm) were cultured in a culture flask with culture medium formed by 10% FCS, DMEM/Ham-12 (50/50) (Dulbecco's Modified Eagle's Medium with Ham-12), 50 IU/mL of penicillin/streptomycin, […] of ascorbic acid, 2.5 μg/mL of amphotericin B, 1% glutamine and 1% essential amino acids. […]
# Twelve-well plates were prepared with 15,000 tenocytes/well and they were incubated with 10% FCS (fetal calf serum). On the following day, the cells were washed three times with serum-free culture medium (0.5% FCS) and were incubated for 30 minutes with serum-free culture medium, after which the control cultures were counted (time “0 hours”). […]
# In all the assays, the cells were incubated for 71 hours and each well was evaluated in each time period by means of a manual count in 10 microscopic fields. […]
substance,measurement,value
"IGF-1: growth factor IGF-1 (Insulin-like Growth Factor 1), used for comparison at 10 ng/mL",increase in the number of adhered tenocytes with respect to the control,~45%
